Values quoted from earlier work as cited in patent publication US20010050137A1, “Anti-microbial shoe linings, sock liners, and socks and process for manufacture of same” (priority 1995, published 2001).
Where two headings read alike, the source gives them in different places.

Assays:
Anacystis montana = details: DMSO cosolvent
Staphylococcus aureus = details: ATCC 6538; approx. 10^6 organisms/ml; DMSO cosolvent
[1] = commercial product, typical value
most algae = details: in general
Aspergillus niger = details: ATCC 9542; approx. 10^5 colony-forming units/ml spores; DMSO cosolvent
Gliocladium virens = details: ATCC 9645; approx. 10^5 colony-forming units/ml spores; DMSO cosolvent
Klebsiella pheumoniae = details: ATCC 4352; approx. 10^6 organisms/ml; DMSO cosolvent
Aureobasidium pullulans = details: ATCC 9348; approx. 10^5 colony-forming units/ml spores; DMSO cosolvent
most bacteria = details: in general
Sctonema hofmaannii = details: DMSO cosolvent
Trentopholia odorata = details: DMSO cosolvent
Pityrosporum Ovale = details: DMSO cosolvent
Escherichia coli = details: ATCC 9637; approx. 10^6 organisms/ml; DMSO cosolvent
Fusarium sp. = details: approx. 10^5 colony-forming units/ml spores; DMSO cosolvent
Pseudomonas aeruginosa = details: ATCC 9721; approx. 10^6 organisms/ml; DMSO cosolvent
Penicillium pinophilum = details: ATCC 9644; approx. 10^5 colony-forming units/ml spores; DMSO cosolvent
Synechocystis minima = details: DMSO cosolvent
Chloroccum tetrasporum = details: DMSO cosolvent
[2] = test system: most fungi (molds and yeasts); details: in general
[3] = test system: algae, mold, mildew and bacteria including E-Coli and Salmonella
Candida Albicans = details: ATCC 11651; DMSO cosolvent
Chaetomium globosum = details: ATCC 6205; approx. 10^5 colony-forming units/ml spores; DMSO cosolvent
Streptococcus faecalis = details: ATCC 19433; approx. 10^6 organisms/ml; DMSO cosolvent
[4] = for Solubility: 25° C.
[5] = test system: Streptoverticillium reticulum; details: ATCC 25607; DMSO cosolvent

c1cc[n+]2c(c1)[S][Zn-2]1([O]2)[O][n+]2ccccc2[S]1 [Zinc Omadine®, bis[1-hydroxy-2(1H)-pyridinethionato-0,S]-(T-4) zinc]
Minimum Inhibitory Concentrations (Anacystis montana): <0.06 Micrograms/ml (ppm)
Minimum Inhibitory Concentrations (Staphylococcus aureus): 4 Micrograms/ml (ppm)
Heat Stability: time stable ([1]; at 100° C.): at least 120 hours
decomposition temperature [1]: 240 °C
MIC in vitro (most algae): less than 1 ppm
Minimum Inhibitory Concentrations (Aspergillus niger): 8 Micrograms/ml (ppm)
Minimum Inhibitory Concentrations (Gliocladium virens): 64 Micrograms/ml (ppm)
Minimum Inhibitory Concentrations (Klebsiella pheumoniae): 8 Micrograms/ml (ppm)
Minimum Inhibitory Concentrations (Aureobasidium pullulans): <2 Micrograms/ml (ppm)
MIC in vitro (most bacteria): less than 50 ppm
Minimum Inhibitory Concentrations (Sctonema hofmaannii): 0.5 Micrograms/ml (ppm)
Minimum Inhibitory Concentrations (Trentopholia odorata): <0.06 Micrograms/ml (ppm)
Minimum Inhibitory Concentrations (Pityrosporum Ovale): 4 Micrograms/ml (ppm)
Minimum Inhibitory Concentrations (Escherichia coli): 8 Micrograms/ml (ppm)
Minimum Inhibitory Concentrations (Fusarium sp.): 32 Micrograms/ml (ppm)
Minimum Inhibitory Concentrations (Pseudomonas aeruginosa): 512 Micrograms/ml (ppm)
Minimum Inhibitory Concentrations (Penicillium pinophilum): <2 Micrograms/ml (ppm)
Minimum Inhibitory Concentrations (Synechocystis minima): <0.06 Micrograms/ml (ppm)
Minimum Inhibitory Concentrations (Chloroccum tetrasporum): 8 Micrograms/ml (ppm)
MIC in vitro [2]: less than 5 ppm
inhibiting the growth of microorganisms [3]: capable of inhibiting the growth
Minimum Inhibitory Concentrations (Candida Albicans): <2 Micrograms/ml (ppm)
Minimum Inhibitory Concentrations (Chaetomium globosum): <2 Micrograms/ml (ppm)
Minimum Inhibitory Concentrations (Streptococcus faecalis): 16 Micrograms/ml (ppm)
Solubility ([4]; Castor oil): <0.0001 w/w %
Solubility ([4]; Chloroform): 0.3 w/w %
Solubility ([4]; Diethyleneglycol monoethyl ether): 0.01 w/w %
Solubility ([4]; Dimethylsulfoxide): 4 w/w %
Solubility ([4]; Ethanol, 40A): 0.01 w/w %
Solubility ([4]; Ethyleneglycol monomethyl ether): 0.09 w/w %
Solubility ([4]; Isopropanol): 0.008 w/w %
Solubility ([4]; Isopropyl myristate): <0.0001 w/w %
Solubility ([4]; Isopropyl palmitate): <0.0001 w/w %
Solubility ([4]; Mineral oil, light): <0.0001 w/w %
Solubility ([4]; Olive oil): <0.0003 w/w %
Solubility ([4]; Polyethylene glycol 400): 0.2 w/w %
Solubility ([4]; Propylene glycol): 0.02 w/w %
Solubility ([4]; Water, pH 7, technical grade material, average): 0.0008 w/w %
Solubility in water ([4]; water, 95 percent powder form): insoluble in water
Minimum Inhibitory Concentrations [5]: 4 Micrograms/ml (ppm)
